# Experimental data published in patent publication US12128072B2, “Hepatocytes and hepatic non-parenchymal cells, and methods for preparation thereof” (The University of Tokyo, priority 2015, dated 2024).
# Test system: mouse CD45-FLK1+CD31+CD34+ cells (liver sinusoidal endothelial progenitor cells)
# Assay: Expression of liver sinusoidal endothelial cell marker genes by quantitative RT-PCR in mouse embryonic liver FLK1+CD31+CD34+ cells
# Assay type: cell-based
# Details: 5 days after addition of A83-01, versus day 0 before addition; FIG. 45
# Procedure: TRIzol reagent (Life Technologies) or NucleoSpin RNA XS (MACHEREY-NAGAL, Duren, Germany) was used to extract the RNA. The remaining genomic DNA was digested using DNaseI (Life Technologies), and then a PrimeScript II 1st strand cDNA Synthesis Kit (Takara Bio, Shiga, Japan) was used to synthesize single-stranded cDNA. The quantitative RT-PCR was carried out using SYBR Premix EX TaqII (Takara Bio, Shiga, Japan), and the data were calculated according to the ddCt method with β-actin as the standardization control.
# Liver was collected from a 12.5-day-old mouse embryo (C57BL/6 mouse). The liver was minced and digested for 10 minutes with Liver Digestion Medium (Life Technologies, California, US). The digested embryonic mouse hepatocytes were subjected to hemolysis and passed through a 70 μm cell strainer (BD Bioscience, New Jersey, US). […]
# The FLK1^+CD31^+CD34^+ cells separated above were also seeded in a fibronectin-coated plate to 15,000 cells/cm^2 and cultured in endothelial cell medium. […] The cell count was calculated using a hemocytometer, after dissociating the cells using 0.05% trypsin/0.5 mM EDTA.
smiles,measurement,value
"Cc1cccc(-c2nn(C(=S)Nc3ccccc3)cc2-c2ccnc3ccccc23)n1 [A83-01, 3-(6-methyl-2-pyridinyl)-N-phenyl-4-(4-quinolinyl)-1H-pyrazolo-1-carbothioamide]","expression of the mature liver sinusoidal endothelial cell marker genes Stab2, F8 and Lyve1",significantly induced expression
